Reference: patent US6602852B1, “Basic peptides and pharmaceutical compositions containing same” (NST NeuroSurvival Technologies, Ltd., priority 1998, dated 2003)
pKd: −log10 of the molar value. Read-outs that look alike come from different tables or passages of the source.

Legend:
[1] = tested on: apoptotic hepatocytes; assay type: in vivo; settings: data not shown
Description: All animals were killed 2 hr after administration of antibody followed by organ removal. Heart, lung and liver were collected.
Formalin fixed paraffin-embedded tissues were sectioned (5 μm) for staining with Hematoxylin/Eosin or other techniques.
Endogenous peroxidase activity was blocked by incubation with 3% H2O2.
After washing with PBS, staining was developed with 3,3-diaminobenzidine tetrahydrochloride (DAB), and counterstained with Hematoxylin.
Liver sections from different lobes were used for detection of stained apoptotic cells compared to normal cells.
The percentage of apoptotic cells in the fields was estimated by evaluating parallel sections stained with Hematoxylin/Eosin. Analysis was performed blindly, since the pathologist performing the histological evaluation was unaware of the assignment of mice to the treatment or control group.

[2] = molecular target: anionic phospholipid membranes; settings: cited from earlier work
[3] = rabbits, intravenous injection; cited from earlier work
[4] = tested on: HeLa S3 cells undergoing dopamine (DA)-induced apoptosis
Description: Said compounds were each dissolved in TBS (Tris Buffered Saline; 10 mM Tris PH 8.0; 150 mM NaCl), at a stock concentration of 10 mM.
HeLa S3 cells (ATCC CCL-2.2) were cultured on a glass chamber slide (Nunc) on a culture area of […]. Chamber slides were pre-coated with 1% gelatin (Sigma) Cells were seeded at a density of 8×10^4 cells/chamber, in a volume of 300 μl of culture medium [Dulbecco's Modified Eagle's Medium (DMEM) supplemented with 2 mM of L-Glutamine; 100 units/ml of Penicilin; 100 μg/ml of Streptomycin; 12.5 units/ml of Nystatin and 10% of Fetal Calf Serum (FCS)]. Following 24 hours of incubation the cells were treated with an apoptotic trigger [i.e. dopamine (DA), which is a well characterized model of apoptosis (Lou et al., J. Biol. Chem. 1998; 273:3756-3764)].
For the DA treatment, the culture medium was replaced by a low serum containing medium (2% FCS), with 500 μM of dopamine (from RBI, Mass., USA) for 18 hours.
The evaluation was performed by staining with Hoechst 33342 dye (Molecular probes). This blue fluorescent dye is rapidly permeable into cells and stains DNA. Hoechst 33342 was added to growing cultures at a concentration of 1 μg/ml and 20 minutes later, the cells were visualized under UV light microscopy. The relative number of apoptotic cells with condensed or fragmented chromatin was then evaluated and compared with non-apoptotic cells which characteristically show a pale and diffuse staining. Photomicrographs were taken for documentation. […] This method was used to evaluate the level of apoptosis in cultured cells prior to binding to the NST300 compounds.
Apoptotic, as well as control untreated cells were grown as specified above and washed twice with TBS. The slides were then incubated with the NST300 compound at concentrations of 250-750 nM for 60 minutes, in a total volume of 100 μl. Slides were then dipped into a Couplin Jar containing 50 ml of TBS, and then incubated with 50 ng/ml of a sterptavidin reagent labeled with FITC (Fluorescein Isothiocyanate Conjugated, from Jackson Immunolaboratory U.S.A.). […] The slides were then washed with TBS as above and were then mounted with Fluoroguard antifade reagent (from Biorad Calif., USA).
The binding was then evaluated with a fluorescent microscope (IX70; Olympus), using a NIBA filter (Narrow Interference Blue A from Olympus).

[5] = tested on: HeLa cells undergoing dopamine-induced apoptosis; settings: 750 nM
Description: HeLa cells were plated on tissue culture plates at a density of 3×10^6 cells/10 cm dish, and grown in a DMEM medium containing 10% FCS, as described in A. The cells were then incubated at 37° C. overnight, and then the medium was replaced with a medium containing 2% FCS and 500 μM of dopamine. 18 hours later, the medium was aspirated and discarded, and 10 ml of Phosphate Buffered Saline pH 7.4 (PBS) were added to the culture dish. The cells which were detached from the culture dish into the PBS were collected. These cells represent advanced apoptotic cells. The remaining cells which were attached to the culture dish were trypsinized by the addition of 2 ml of trypsin for 2 minutes at 37° C., followed by the addition of 10 ml of a medium containing 10% of FCS. The cells were then washed with PBS containing 2% Bovine Serum Albumin (BSA), and resuspended in TBS containing 2% BSA (TBS-BSA). These cells were regarded as early apoptotic cells. […] Only non-treated cells that were attached to the culture dish were used as control cells for the FACS analysis.
A set of 3 different cell types was taken:
The incubation with the NST300 compounds or control compound was performed in a final volume of 100 μl TBS-BSA, 5 μg/ml of propidium iodide (PI) and 750 nM of the tested compound or the control compound.
PI is a red fluorescent dye that stains DNA. […] Only cells that are in advanced apoptotic stages, or cells that have already died by apoptosis or necrosis will be permeable to PI and will be stained with the dye. […] The cells were then washed in 500 μl of cold TBS-BSA and centrifugated as before. The cells were then suspended in 100 μl of TBS-BSA containing streptavidin conjugated to fluorescein (FITC). […] Thereafter, the cells were washed three times in TBS-BSA and were taken for FACS analysis.
The FACS analysis was performed on a Beckton-Dickinson cell sorter, using lysis II software. Excitation was at 488 nm and the emission or FITC detection was at 535 nm and for PI detection at 585 nm.

[6] = tested on: clotting induced by negatively charged phospholipids in normal plasma
Description: The ability of NST300 compounds to inhibit coagulaton catalyzed by negatively—charged phospholipids was evaluated in a standard coagulation test of the Russell viper venom (RVV) assay. The RVV reagent directly activates factor x present in the plasma, thus promoting prothrombinase complex formation. This reagent is widely used as a standard phospholipid responsive clotting test. (Thiagarajan et al., Blood, 1986; 869-874).
The RVV reagent kit, containing RVV and negatively charged phospholipids, from Gradipore, Australia was used. The reactions were started by mixing 100 μl of RVV reagent, and 100 μl of quality control plasma collected from normal individuals (commercially available from Instrumentation Laboratory, Italy). Clotting time was determined as the time-point beyond which the continuously mixed reaction ingredients in the test tube, could no longer be aspirated with a pasteur pipette. Clotting time was measured independently by two separate researchers.

[7] = tested on: procoagulant activity of apoptotic HeLa S3 cells; settings: 0.5 μM; for effect on procoagulant effect of apoptotic cells: FIG. 5a
Description: In the standard APTT test, clot formation is triggered by recalcification of plasma and addition of cephalin, i.e. negatively-charged phospholipids. Time until clot formation was measured as described in Example 3. […] In the modified APTT test, used in the present study, the addition of negatively-charged phospholipids (cephalin) was replaced by addition of apoptotic cells.
The cultured medium was discarded, and cells that were loosely attached to the growing surface, were collected in PBS, as described in Example 2B. These cells were washed and resuspended in TBS, and were regarded as advanced apoptotic cells. Equal numbers of apoptotic or control non-treated cells (10^5) in a volume of 100 μl, were mixed with 100 μl of 25 mM of CaCl2 and the clotting time was measured. […] Inhibition of their procoagulant activity by NST300 compounds was tested following pre-incubation of apoptotic cells with the different NST300 compounds.
Pre-incubation of equal numbers of apoptotic or control non-treated cells (10^5) with NST300 compounds was for 10 minutes at room temperature in a final volume of 100 μl. The compounds were used at concentration of 0.5 μM. The results can be seen in FIG. 5a.

[8] = tested on: Human Umbilical Vein Endothelial Cells (HUVEC); settings: 500 ng of compound, 40 minutes
Description: HUVEC (CC-2517, obtained from Clonetics, Walkersville, Md.) were grown on tissue culture flasks in Endothelial cell medium (EGM-2 Bulletkit, CC 3162, Clonetics). Mid-confluent cultures were harvested using Trypsine/EDTA solution (CC-5012, Clonetics). The cells were rinsed twice with PBS containing 2% BSA and kept on ice. Samples of 10^6 cells were tested for binding.
The reactions were incubated at room temperature for 40 minutes and then 400 μl of TBS-BSA were added and cells were collected by centrifugation at 3000×g for 3 minutes. Cells were washed in 1 ml of TBS-BSA and centrifuged as before and then suspended in 100 μl of TBS-BSA containing streptavidin conjugated to flourescein (FITC) for detection of the bound biotinylated compound. […] Thereafter, 400 μl of TBS-BSA were added and cells were centrifuged and washed again with 1 ml of TBS-BSA as before and then resuspended in 400 μl of TSS and taken for FACS analysis.
The FACS analysis was performed on Beckton-Dickinson cell sorter, using lysis II software. Excitation was at 488 nm and emission for FITC detection was a 535 nm.
A dot plot analysis was done for each treatment.

Row | Substance | staining pattern when exogenously added to the apoptotic cells [1] | pKd [2] | clearance within 5 minutes [3] | staining of advanced apoptotic cells ([4]; 750 nM, FIG. 2c) | staining of cells in early apoptotic stages ([4]; 750 nM, FIG. 2c) | staining of control non-treated HeLa cells ([4]; 750 nM, fluorescent microscopy) | detection of early apoptotic cells ([5]; FIG. 3c) | early apoptotic cells double stained also with PI ([5]; early apoptotic cells) | binding intensity: ratio of FITC mean value of apoptotic cells to that of control cells ([5]; early apoptotic cells, FIG. 3b) | total FITC/total PI ratio ([5]; advanced apoptotic cells) | total FITC/total PI ratio ([5]; early apoptotic cells) | increase of clotting time by a factor as compared to control ([6]; 0.5-50 μM, control clotting time 40 seconds) | effect on procoagulant effect of apoptotic cells [7] | increase of clotting time by a factor ([7]; apoptotic cells) | staining of DA-induced apoptotic HeLa cells ([4]; 250-750 nM compound, streptavidin-FITC, fluorescent microscopy) | cells FITC positive [8] | anti-coagulant effect ([6]; RVV test, FIG. 4) | effect on procoagulant effect of apoptotic cells ([7]; listed as NST 301-C)
1 | Annexin V: 320 amino acid protein of the annexin family, Ca2+-dependent binding to anionic phospholipid membranes | same pattern of staining | 9.00 to 11.00 | 90% |  |  |  |  |  |  |  |  |  |  |  |  |  |  | 
2 | Myristate-GGGKKKKKRFSFKKSFKLSGFSFKKNKKK (SEQUENCE ID NO. 1)-(biotin) [NST301] |  |  |  | intense labeling | light, peripheral staining | few of them were stained, and very faintly | potent detector | 43% | 4 fold | 1.2 | 2.2 | 2.6 | fully reversing | 2 |  |  |  | 
3 | GGGKKKKKRFSFKKSFKLSGFSFKKNKKK (SEQUENCE ID NO. 3) (Biotin)-OH [NST301-C, reference compound] |  |  |  |  |  |  |  |  |  |  |  |  | mild effect |  | did not show any significant binding | 7% | Significant, though moderate effect | very modest effect
